The test system of data set [1] is rat. To be noted: Developmental neurotoxicity study, wistar, Oral, Water, dose end: 45 PND, group: cannot be grouped.
For data set [2], the system named is rat. Conditions: Developmental neurotoxicity study; long evans; Inhalation; Whole-Body; dose end: 160 PND; group: cannot be grouped; systemic / in life observation / body weight / body weight + developmental / developmental landmark / vaginal opening / vaginal opening + ….
In data set [3] the test system is dog. To be noted: Carcinogenicity; beagle; Oral; Capsule; dose end: 109 month; group: systemic; systemic / pathology microscopic / urinary bladder / carcinoma + systemic / clinical chemistry / alanine aminotransferase (alt/sgpt) / ….
For data set [4], the system named is rat. To be noted: Multigenerational reproductive toxicity study, CD CRL:CD-BR, Oral, Water, dose end: 2 generation.
Data set [5] deals with rat. Conditions: Subchronic oral toxicity in rodents, fischer, Water, dose end: 6 month, group: systemic.
Data set [6] deals with mouse. To be noted: Sub-acute repeat dose toxicity, b6c3f1, Oral, Water, dose end: 14 day, group: systemic.
In data set [7] the test system is rat. Conditions: Combined chronic toxicity/carcinogenicity; fischer; Oral; Water; dose end: 103 week; group: systemic; systemic / clinical chemistry / flouride / fluoride + systemic / in life observation / clinical signs / tooth-mottling + systemic / in life ….
Data set [8] deals with rat. Conditions: Prenatal developmental toxicity study; other; Oral; Water; dose end: 15 GD; group: maternal; systemic / in life observation / body weight / body weight gain + systemic / in life observation / water consumption / water consumption.
For data set [9], the system named is rat. Conditions: Carcinogenicity, sprague dawley, Oral, Feed, dose end: 24 month, group: systemic.
For data set [10], the system named is rabbit. To be noted: Prenatal developmental toxicity study; new zealand white; Oral; Water; dose end: 19 GD; group: maternal; systemic / in life observation / body weight / body weight gain + systemic / in life observation / food consumption / food consumption + ….
The subject of data set [11] is mouse. To be noted: Subchronic oral toxicity in rodents, B6C3F1, Water, dose end: 6 month, group: systemic.
The test system of data set [12] is rat. Conditions: Sub-acute repeat dose toxicity, fischer, Oral, Water, dose end: 14 day, group: systemic.
The subject of data set [13] is mouse. To be noted: Combined chronic toxicity/carcinogenicity; b6c3f1; Oral; Water; dose end: 103 week; group: systemic; systemic / clinical chemistry / flouride / fluoride + systemic / in life observation / clinical signs / tooth-attrition + systemic / in life….
In data set [14] the test system is rat. To be noted: Prenatal developmental toxicity study, other, Oral, Water, dose end: 20 GD, group: maternal.
The mark [15] stands for this setting: systemic / clinical chemistry / dopamine / dopamine + systemic / clinical chemistry / protein / protein + systemic / in life observation / ….
Where [16] appears, read: group: offspring, systemic / in life observation / clinical signs / tooth nos.
[17] abbreviates: group: parental, systemic / in life observation / water consumption / water consumption + systemic / pathology microscopic / stomach / hyperkeratosis + ….
Setting [18] is: systemic / pathology gross / stomach / hemorrhage + systemic / pathology gross / stomach / ulcer + systemic / pathology microscopic / ….
Where [19] appears, read: systemic / in life observation / body weight / body weight.
Where [20] appears, read: systemic / in life observation / clinical signs / tooth-dysplasia + systemic / in life observation / clinical signs / tooth-discolored + ….
The mark [21] stands for this setting: systemic / organ weight / [other] / absolute + systemic / organ weight / [other] / relative to body weight + systemic / organ weight / ….
Setting [22] is: systemic / in life observation / body weight / body weight + systemic / in life observation / clinical signs / dehydration + systemic / in ….
The mark [23] stands for this setting: systemic / in life observation / body weight / body weight gain + systemic / in life observation / food consumption / food consumption + ….

Consider `CO` [Methanol], for which, in data set [1] (setting [15]), the LOAEL was greater than 2000 mg/kg/day, the NEL turned out to be 500 mg/kg/day and the NOAEL is no less than 2000 mg/kg/day. The LEL in data set [1] (systemic / clinical chemistry / protein / protein + systemic / clinical chemistry / dopamine / dopamine + systemic / in life observation / …) was found to be 1000 mg/kg/day. In data set [2], the LEL was determined as 6110 mg/kg/day, the LOAEL is greater than 6110 mg/kg/day, the NEL is less than 6110 mg/kg/day and the NOAEL is no less than 6110 mg/kg/day.
Consider `Nc1ccc2ccccc2c1` [2-Naphthylamine], for which, in data set [3], the LEL was determined as 18.4 mg/kg/day, the LOAEL is greater than 18.4 mg/kg/day, the NEL is less than 18.4 mg/kg/day and the no-observed-adverse-effect level (NOAEL) was no less than 18.4 mg/kg/day.
As to `[F-].[Na+]` [Sodium fluoride], the LEL in data set [4] (setting [16]) is 12.5 mg/kg/day; in data set [4] (group: parental, systemic / pathology microscopic / stomach / hyperkeratosis + systemic / in life observation / water consumption / water consumption), 5 mg/kg/day; in data set [5] (systemic / pathology microscopic / stomach / hyperplasia), 5 mg/kg/day; in [6] (systemic / in life observation / body weight / body weight + systemic / in life observation / water consumption / water consumption + …) it was 120 mg/kg/day; in data set [7], 1.3 mg/kg/day; in data set [8] it was 27 mg/kg/day. Also, the LEL turned out to be 4 mg/kg/day in data set [9] (setting [20]); 29 mg/kg/day in data set [10]; 7.5 mg/kg/day in [11] (systemic / pathology microscopic / bone / proliferation); 20 mg/kg/day in data set [12] (setting [22]); 2.4 mg/kg/day in data set [13]; 24.7 mg/kg/day in data set [14] (systemic / in life observation / water consumption / water consumption). Moreover, the LOAEL is greater than 12.5 mg/kg/day in data set [4] (setting [16]); greater than 12.5 mg/kg/day in data set [4] (setting [17]); 15 mg/kg/day in [5] (setting [18]); 7.5 mg/kg/day in data set [6] (setting [19]); 1.3 mg/kg/day in data set [7]; greater than 27 mg/kg/day in data set [8]. Further, the LOAEL in [9] (setting [21]) is greater than 25 mg/kg/day; in [10], greater than 29 mg/kg/day; in data set [11] (systemic / in life observation / body weight / body weight gain), 30 mg/kg/day; in data set [12] (setting [19]), 5 mg/kg/day; in data set [13] it was 2.4 mg/kg/day; in data set [14] (setting [23]), greater than 25.1 mg/kg/day. Also, the NEL in data set [4] (setting [16]) is 8.75 mg/kg/day; in data set [4] (setting [17]), 1.25 mg/kg/day; in [5] (setting [18]), 1.5 mg/kg/day; in data set [6] (systemic / in life observation / body weight / body weight + systemic / in life observation / water consumption / water consumption) it was 60 mg/kg/day; in data set [7], less than 1.3 mg/kg/day; in data set [8], 18 mg/kg/day. Further, the NEL in data set [9] (setting [20]) is less than 4 mg/kg/day; in data set [10], 18 mg/kg/day; in [11] (systemic / in life observation / body weight / body weight gain + systemic / pathology microscopic / bone / proliferation + systemic / in …), 1.5 mg/kg/day; in data set [12] (setting [22]), 10 mg/kg/day; in data set [13], less than 2.4 mg/kg/day; in data set [14] (setting [23]) it was 15.6 mg/kg/day. For the same molecule, the NOAEL in data set [4] (setting [16]) is no less than 12.5 mg/kg/day; in data set [4] (setting [17]), no less than 12.5 mg/kg/day; in data set [5] (setting [18]) it was 5 mg/kg/day; in data set [6] (setting [19]) it was less than 7.5 mg/kg/day; in [7], less than 1.3 mg/kg/day; in [8], no less than 27 mg/kg/day. For the same molecule, the NOAEL is no less than 25 mg/kg/day in [9] (setting [21]); no less than 29 mg/kg/day in data set [10]; 15 mg/kg/day in data set [11] (systemic / in life observation / body weight / body weight gain + systemic / in life observation / clinical signs / [other] + systemic / in …); 2.5 mg/kg/day in data set [12] (setting [22]); less than 2.4 mg/kg/day in data set [13]; no less than 25.1 mg/kg/day in data set [14] (setting [23]).

These data come from EPA's ToxRefDB 2.
